{"source": "patent EP2196204A1", "about": "(priority 2007, dated 2009)", "test_system": "DU-145", "assay_type": "cell-based, human"}
{"smiles": "CC(=O)O[C@H]1C(=O)[C@@]2(C)[C@H]([C@H](OC(=O)c3ccccc3)[C@]3(O)C[C@H](OC(=O)[C@H](O)[C@@H](NC(=O)c4ccccc4)c4ccccc4)C(C)=C1C3(C)C)[C@]1(OC(C)=O)CO[C@@H]1C[C@@H]2O", "note": "[Taxol]", "values": [{"measurement": "Cell survival rate", "value": 63.88, "unit": "%"}]}
